From ChEMBL document CHEMBL4330186, “An Isoquinoline Scaffold as a Novel Class of Allosteric HIV-1 Integrase Inhibitors” (ACS Med Chem Lett, 2019) come the findings set out here.

As a reminder, the IC50 is the concentration that gives 50% inhibition. High values mean lower potency, low ones higher potency. In general, EC50 refers to the concentration that produces a half-maximal response.

The target of data set [1] is T1, Human immunodeficiency virus type 1 integrase (Human immunodeficiency virus 1, UniProt Q7ZJM1). In words: Inhibition of LEDGF/p75-independant HIV1 His/FLAG-tagged integrase expressed in Escherichia coli BL21(DE3) by HTRF assay.
Data set [2] has as its system Human immunodeficiency virus 1. In words: Antiviral activity against HIV-1 NL4-3 harboring integrase A128T mutant infected in human HeLa TZM-bl cells after 48 hrs by p24 ELISA. The settings on record: Human immunodeficiency virus 1, NL4-3, 48 h. The format is functional, organism-based. On the technique in general: In an ELISA, binding on a coated surface is turned into a signal by an enzyme label.

Data set [3] addresses T1, Human immunodeficiency virus type 1 integrase. Kind of data set: Inhibition of LEDGF/p75-dependant HIV1 His/FLAG-tagged integrase expressed in Escherichia coli BL21(DE3) by HTRF assay. (In TR-FRET formats the signal depends on donor and acceptor labels being close together.)
Data set [4] concerns Human immunodeficiency virus 1. In words: Antiviral activity against HIV-1 NL4-3 harboring wild-type integrase infected in human HeLa TZM-bl cells after 48 hrs by p24 ELISA. In kind it is functional, organism-based. The settings on record: Human immunodeficiency virus 1, NL4-3, 48 h.
Data set [5] deals with T1, Human immunodeficiency virus type 1 integrase. Kind of data set: Inhibition of biotinylated-TAR-RNA binding to HIV1 His6-tagged integrase expressed in Escherichia coli BL21(DE3) preincubated for 2 hrs followed by RNA addition and measured after 2 hrs by Alpha screen assay.
The target is the same in data set [6]. In words: Inhibition of LEDGF/p75 binding to HIV1 His/FLAG-tagged integrase expressed in Escherichia coli BL21(DE3) by HTRF assay.
For data set [7] the target is unchanged. Kind of data set: Induction of HIV1 His/FLAG-tagged integrase hyper-multimerization expressed in Escherichia coli BL21(DE3) by HTRF assay.
Data set [8] in a line: Stability of the compound at 60 degC for 17 hrs by 1H NMR analysis. The format is physicochemical.
Data set [9] in a line: Drug metabolism in DMSO d6 at 100 degC for 3 days by 1H NMR analysis.
Data set [10] can be described thus: Drug level treated with 2-(1-(biphenyl-4-yl)-3-(chroman-6-yl)isoquinolin-4-yl)-2-tert-butoxyacetic acid at 100 degC for 17 days by 1H NMR analysis. As to conditions: 408 h. The format is physicochemical.
A short description of data set [11]: Drug level treated with 2-(1-(biphenyl-4-yl)-3-(chroman-6-yl)isoquinolin-4-yl)-2-tert-butoxyacetic acid at 100 degC for 17 days by HSQC NMR analysis. In kind it is physicochemical. As to conditions: 408 h.
Data set [12] is described as follows: Drug metabolism assessed as 1-([1,1'-biphenyl]-4-yl)-3-(chroman-6-yl)isoquinoline-4-carbaldehyde formation at 100 degC for 17 days by 1H NMR analysis.
Data set [13] in a line: Drug metabolism assessed as 1-([1,1'-biphenyl]-4-yl)-3-(chroman-6-yl)isoquinoline-4-carbaldehyde formation at 100 degC for 17 days by HSQC NMR analysis.

T1 sequence (Q7ZJM1 whole entry): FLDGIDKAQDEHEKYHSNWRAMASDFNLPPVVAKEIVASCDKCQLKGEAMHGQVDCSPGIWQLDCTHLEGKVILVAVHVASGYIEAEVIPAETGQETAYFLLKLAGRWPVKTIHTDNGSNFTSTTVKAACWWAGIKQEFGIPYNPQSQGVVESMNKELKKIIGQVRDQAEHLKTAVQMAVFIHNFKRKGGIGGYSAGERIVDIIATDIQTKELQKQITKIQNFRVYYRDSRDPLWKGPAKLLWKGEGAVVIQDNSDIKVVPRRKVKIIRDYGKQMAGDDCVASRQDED

In data set [1], `CC(C)(C)OC(C(=O)O)c1c(-c2ccccc2)nc(-c2ccccc2)c2ccccc12` (stereo not given) gave an IC50 of 10.1 µM.

In data set [1], `CC(C)(C)OC(C(=O)O)c1c(-c2ccc3c(c2)CCCO3)nc(-c2ccccc2)c2ccccc12` (stereo not given) yielded an IC50 of 4.65 µM.

As for `CC(C)(C)OC(C(=O)O)c1c(-c2ccc3c(c2)CCCO3)nc(-c2ccco2)c2ccccc12` (stereo not given), half-maximal inhibition in data set [1] (IC50) was put at 3.55 µM.

Take `CC(C)(C)OC(C(=O)O)c1c(-c2ccc3c(c2)CCCO3)nc(-c2ccc3c(c2)CCCO3)c2ccccc12` (stereo not given): inhibition in data set [1] was half-maximal at 1.22 µM (IC50).

In the case of `CC(C)(C)OC(C(=O)O)c1c(-c2ccc3c(c2)CCCO3)nc(-c2cnn(Cc3ccccc3)c2)c2ccccc12` (stereo not given), the figures for the EC50 in data set [2], in data set [4] and in data set [7] were 0.73 µM, 1.1 µM and < 1.79 µM, respectively. Further, the IC50 in data set [3] came out at 23.4 µM; in [1] it was 0.48 µM; in data set [5], 0.21 µM; in [6] it was 36.7 µM.

In data set [1], `COc1cccc(-c2nc(-c3ccc4c(c3)CCCO4)c(C(OC(C)(C)C)C(=O)O)c3ccccc23)c1` (stereo not given) came in with an IC50 of 1.14 µM. Also, the Stability result in data set [8] is reported as “Stable”. Further, the Drug metabolism entry in [9] is given as “Metabolite detected”.

`O=Cc1c(-c2ccc3c(c2)CCCO3)nc(-c2ccc(-c3ccccc3)cc2)c2ccccc12`: the Drug metabolism result in data set [10] and in data set [11] was “Metabolite_Detected” throughout.

On to `CC(C)(C)OC(C(=O)O)c1c(-c2ccc3c(c2)CCCO3)nc(-c2ccc(C(F)(F)F)cc2)c2ccccc12` (stereo not given), for which, in data set [1], the IC50 is 7.64 µM.

Consider `CC(C)(C)OC(C(=O)O)c1c(-c2ccc3c(c2)CCCO3)nc(-c2ccc(-c3ccccc3)cc2)c2ccccc12` (stereo not given), for which the Drug metabolism entry in [12] and in data set [13] was “Metabolite detected” each time. In addition, the IC50 in data set [1] worked out at 0.83 µM. Moreover, in [8], the Stability result is reported as “Stable”.

Turning to `CC(C)(C)OC(C(=O)O)c1c(-c2ccc3c(c2)CCCO3)nc(-c2cccc(C(=O)O)c2)c2ccccc12` (stereo not given), the IC50 in data set [1] is 12.3 µM.

Compound `CC(C)(C)OC(C(=O)O)c1c(-c2ccc3c(c2)CCCO3)nc(-c2cccc(F)c2)c2ccccc12` (stereo not given) had an IC50 in data set [1] of 12.9 µM. Also, in data set [8], the Stability result is recorded as “Stable”. The Drug metabolism entry in data set [9] is listed as “Metabolite detected”.

With `Cc1nc2ccc(Br)cc2c(-c2ccc(Cl)cc2)c1C(OC(C)(C)C)C(=O)O` (stereo not given), the values for the EC50 in data set [2], in [4] and in data set [7] were 12.2 µM, 0.63 µM and 0.146 µM, respectively. Moreover, the IC50 in data set [3] came to 0.15 µM; in data set [1] it was 0.12 µM; in data set [5], 0.136 µM; in [6], 0.15 µM.

In turn, `CC(C)(C)OC(C(=O)O)c1c(-c2ccc3c(c2)CCCO3)nc(-c2nc3cc(Cl)ccc3[nH]2)c2ccccc12` (stereo not given) had an IC50 in [1] of 0.81 µM.

In the case of `COc1ccc(-c2nc(-c3ccc4c(c3)CCCO4)c(C(OC(C)(C)C)C(=O)O)c3ccccc23)cc1` (stereo not given), in data set [1], the IC50 stood at 1 µM.

Consider `COc1cccc(-c2nc(-c3ccccc3)c(C(OC(C)(C)C)C(=O)O)c3ccccc23)c1` (stereo not given), for which 13.8 µM corresponded to half-maximal inhibition in [1] (IC50). This IC50 is about 14-fold higher than that of the compound before.
